Assays:
[1] = test system: callus rounds of Davallia mariesii; test: Sporophyte regeneration from callus rounds under various cytokinins; format: cell-based
Method: Finally, the callus round is further cultured in a culture fluid at 23° C. to 25° C. and 11 to 14 μmol^−2 s^−1 (Light:Dark=16:8) for between to 150 days (preferably for 120 days), and are preferably sub-cultured every fifteen days till the callus round regenerates a sporophyte. In this situation, the callus round will keep on growing, and can reach 0.57 cm to 0.7 cm in diameter after approximately 60 days, and reach 1.2 cm to 1.34 cm in 120 days. In the present example, the culture fluid comprises ½ MS medium. In other examples, the culture fluid can further comprise 1 to 5 mg/l N6-(delta 2-isopentenyl)-adenine (2ip), 6-benzylaminopurine (BA) and kinetin, particularly for 1 mg/l N6-(delta 2-isopentenyl)-adenine (2ip). […] Additionally, a regenerated sporophyte of the present example can be further transplanted to a solid medium till it has more than 3 cm length (preferably for 3.5 cm length) for growing into a plant, wherein the plant has a survival rate of up to 90.3%. In the present experiment, callus rounds, being 0.14±0.03 g and 0.21±0.02, are prepared wherein every four are cultured in a culture fluid to induce the callus rounds to regenerate sporophytes, wherein the medium comprises ½ MS medium (including a small amount of sucrose, namely 20 g/l sucrose) and various cytokinins in various amounts as listed in TABLE 3. After 60 days and 120 days of culturing, respectively, sporophytes obtained in each medium are collected and analyzed to record the size of the callus rounds and the number and length of sporophytes regenerated from the callus rounds.

[2] = test system: chopped prothallium of Davallia mariesii; test: Calluses induction from chopped prothallium under various growth regulators; format: cell-based; conditions: 60 days
Method: The prothallium is chopped up into small pieces being 0.1 cm to 0.2 cm in width and cultured (suspending culture) in a medium, wherein the medium comprises ½ MS medium (Murashige and Skoog, 1962) having a composition as shown in TABLE 1. In other examples, the medium can also comprise Knop medium (Murashige and Skoog, 1962) or knudson medium (Knudson, 1946). Precisely, 0.1 g chopped prothallium are cultured in 10 ml ½ MS medium, which are shake cultured at 85 rpm for forty to eighty days, and preferably at 23° C. to 25° C. and 11 to 14 μmol^−2 s^−1 (Light:Dark=16:8) for sixty days, and are sub-cultured every thirty days. In the present experiment, a plurality of 50 ml flasks are prepared, each having 0.1 g chopped prothallium of Davallia mariesii (in 0.1 cm to 0.2 cm pieces) being cultured in a medium therein, wherein the medium comprises 10 ml ½ MS medium (including a small amount of sucrose, namely 20 g/l sucrose) and various growth regulators in various amounts as listed in TABLE 2. After 60 days of culturing, calluses obtained in each flask are collected and analyzed respectively, to record the size, weight and number of each callus.

[3] = 1 mg/l in culture fluid, 120 days
[4] = single growth regulator 1 mg/L in 1/2 MS medium
[5] = single growth regulator 2 mg/L in 1/2 MS medium
[6] = single growth regulator 5 mg/L in 1/2 MS medium

Structure (SMILES)	Diameter (cm) of callus round and sporophyte thereon ([1]; cytokinin 1 mg/L, 60 days) [cm]	Induction Rate (%) of sporophyte ([1]; cytokinin 1 mg/L, 60 days) [%]	Proliferation Rate (%) of callus round ([1]; cytokinin 1 mg/L, 60 days) [%]	Diameter (cm) of callus round and sporophyte thereon ([1]; cytokinin 1 mg/L, 120 days) [cm]	Induction Rate (%) of sporophyte ([1]; cytokinin 1 mg/L, 120 days) [%]	Proliferation Rate (%) of callus round ([1]; cytokinin 1 mg/L, 120 days) [%]	Diameter (cm) of callus round and sporophyte thereon ([1]; cytokinin 2 mg/L, 60 days) [cm]	Induction Rate (%) of sporophyte ([1]; cytokinin 2 mg/L, 60 days) [%]	Proliferation Rate (%) of callus round ([1]; cytokinin 2 mg/L, 60 days) [%]	Diameter (cm) of callus round and sporophyte thereon ([1]; cytokinin 2 mg/L, 120 days) [cm]	Induction Rate (%) of sporophyte ([1]; cytokinin 2 mg/L, 120 days) [%]	Proliferation Rate (%) of callus round ([1]; cytokinin 2 mg/L, 120 days) [%]	Diameter (cm) of callus round and sporophyte thereon ([1]; cytokinin 5 mg/L, 60 days) [cm]	Induction Rate (%) of sporophyte ([1]; cytokinin 5 mg/L, 60 days) [%]	Proliferation Rate (%) of callus round ([1]; cytokinin 5 mg/L, 60 days) [%]	Diameter (cm) of callus round and sporophyte thereon ([1]; cytokinin 5 mg/L, 120 days) [cm]	Induction Rate (%) of sporophyte ([1]; cytokinin 5 mg/L, 120 days) [%]	Proliferation Rate (%) of callus round ([1]; cytokinin 5 mg/L, 120 days) [%]	Calluses (numbers), callus round in 0.1-0.2 cm [2, 4] [numbers]	Proliferation Rate (%) [2, 4] [%]	other results
c1ccc(CNc2ncnc3nc[nH]c23)cc1 [BA, 6-benzylaminopurine]	0.29 ± 0.05	0.0	40.5 ± 16.6	0.97 ± 0.15	0.0	191.1 ± 71.5	0.42 ± 0.06	0.0	89.9 ± 22.9	0.77 ± 0.13	0.0	300.0 ± 38.6	0.41 ± 0.06	0.0	41.1 ± 16.3	0.88 ± 0.16	0.0	216.7 ± 38.7	–	–	–
CC(C)=CCNc1ncnc2nc[nH]c12 [2ip, N6-(delta 2-isopentenyl)-adenine]	0.57 ± 0.04	100.0	208.9 ± 24.1	1.34 ± 0.22	100.0	537.5 ± 161.2	0.60 ± 0.03	100.0	156.0 ± 22.2	1.46 ± 0.21	100.0	386.3 ± 99.7	0.38 ± 0.03	0.0	64.9 ± 18.3	0.91 ± 0.24	8.3	208.3 ± 67.9	–	–	induction rate of sporophytes [1, 3]: 100%; proliferation rate of the callus [1, 3]: 537±161.2%
O=C(O)Cc1cccc2ccccc12 [NAA, 1-Naphthaleneacetic acid]	–	–	–	–	–	–	–	–	–	–	–	–	–	–	–	–	–	–	54.33 ± 9.46	96.6 ± 17.0	Calluses (numbers), callus round in 0.1-0.2 cm [2, 5]: 23.67 ± 1.25 numbers; Proliferation Rate (%) [2, 5]: 53.3 ± 20.6%; Calluses (numbers), callus round in 0.1-0.2 cm [2, 6]: 0.00 ± 0.00 numbers; Proliferation Rate (%) [2, 6]: 23.3 ± 4.7%
c1coc(CNc2ncnc3nc[nH]c23)c1 [Kinetin, 6-Furfurylamino-purine]	0.31 ± 0.06	0.0	82.1 ± 24.3	0.63 ± 0.09	16.7	231.0 ± 83.5	0.23 ± 0.05	0.0	47.0 ± 12.2	1.02 ± 0.06	0.0	182.1 ± 88.4	0.32 ± 0.07	0.0	72.6 ± 17.5	1.13 ± 0.10	0.0	217.9 ± 70.9	73.67 ± 14.38	153.3 ± 24.9	Calluses (numbers), callus round in 0.1-0.2 cm [2, 5]: 21.00 ± 3.74 numbers; Proliferation Rate (%) [2, 5]: 66.6 ± 17.0%; Calluses (numbers), callus round in 0.1-0.2 cm [2, 6]: 6.00 ± 5.35 numbers; Proliferation Rate (%) [2, 6]: 23.3 ± 4.7%
